Data from the supplement of paper PMC10307832.

Key:
[1] = compound: CC1=C(C(=NN1)C)CC2=C(C3=C(S2)N(C(=O)N(C3=O)C)CC(C)C)C(=O)N4C[C@@H](CO4)O + CC(=O)Nc1cccc(-n2c(=O)n(C3CC3)c(=O)c3c(Nc4ccc(I)cc4F)n(C)c(=O)c(C)c32)c1 [Trametinib] (partner 0.02 µM); experiment: relative viability (nuclei count vs DMSO), 5 days (fraction); higher = more cells survive
Outline: (§1)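 Relative viability was taken as the ratio of nuclei in treated wells to nuclei in vehicle wells. Lung cancer cell lines in 1536-well plates received compounds by pin tool one day after seeding, either one drug alone or a fixed anchor-drug dose plus five library-drug doses (not always all listed) in √10 steps. Nuclei were counted on 4× images after 5 days of treatment, and values are medians of duplicate plates.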

IDH-C35 + Dasatinib = compound: Cc1ccccc1C(C(=O)NC1CCCCC1)N(C(=O)Cn1ccnc1C)c1cccc(F)c1 [IDH-C35] + Cc1nc(Nc2ncc(C(=O)Nc3c(C)cccc3Cl)s2)cc(N2CCN(CCO)CC2)n1 [Dasatinib] (partner 0.075 µM); experiment: as above
Outline: as §1

Cell Line	relative viability ([1]; first compound 0.0025 µM)	relative viability ([1]; first compound 0.007906 µM)	relative viability ([1]; first compound 0.025 µM)	relative viability ([1]; first compound 0.07906 µM)	relative viability ([1]; first compound 0.25 µM)	relative viability (IDH-C35 + Dasatinib; first compound 0.08 µM)	relative viability (IDH-C35 + Dasatinib; first compound 0.253 µM)	relative viability (IDH-C35 + Dasatinib; first compound 0.8 µM)	relative viability (IDH-C35 + Dasatinib; first compound 2.53 µM)	relative viability (IDH-C35 + Dasatinib; first compound 8 µM)
NCI-H1993	0.627	0.0091	0.553	0.641	0.522	0.654	0.53	0.577	0.559	0.621
RERF-LC-KJ	0.898	0.94	0.838	0.883	0.909	0.894	0.76	0.898	0.964	0.761
NCI-H23	0.42	0.526	0.421	0.359	0.397	0.779	0.718	0.738	0.901	0.864
HCC-366	0.367	0.501	0.376	0.455	0.324	0.763	0.67	0.669		0.596
EMC-BAC-2	0.902	0.904	0.938	0.892	0.986	0.355	0.346	0.348	0.298	0.281
NCI-H2405	0.689	0.627	0.618	0.673	0.692	0.209	0.212	0.213	0.206	0.184
NCI-H358	0.146	0.125	0.146	0.125	0.129	0.205	0.159	0.141	0.193	0.169
NCI-H1944	0.422	0.438	0.478	0.396	0.385	0.233	0.228	0.211	0.228	0.211
NCI-H2342	0.932	0.751	0.724	0.854	0.976	0.308	0.381	0.32	0.374	0.299
EPLC-272H	0.317	0.236	0.31	0.295	0.352	0.432	0.357	0.506	0.653	0.323
NCI-H1915	0.295	0.307	0.288	0.302	0.32	0.328	0.308	0.304	0.326	0.309
NCI-H596	0.789	0.871	0.878	0.76	0.886	0.588	0.759	0.693		0.56
NCI-H322M	0.503	0.577	0.471	0.527	0.433	0.244	0.253	0.26	0.247	0.243
NCI-H2228	0.788	0.584	0.578	0.662	0.577	0.571	0.526	0.509	0.53	0.537
NCI-H522	0.77	0.768	0.701	0.606	0.657	0.977	0.976	0.858	1.01	0.905
NCI-H647	0.506	0.582	0.579	0.558	0.448	0.194	0.204	0.198	0.223	0.192
SK-MES-1	0.562	0.607	0.604	0.591	0.592	0.433	0.353	0.424	0.355	0.336

Cell Line	relative viability ([1]; first compound 0.0025 µM)	relative viability ([1]; first compound 0.007906 µM)	relative viability ([1]; first compound 0.025 µM)	relative viability ([1]; first compound 0.07906 µM)	relative viability ([1]; first compound 0.25 µM)	relative viability (IDH-C35 + Dasatinib; first compound 0.08 µM)	relative viability (IDH-C35 + Dasatinib; first compound 0.253 µM)	relative viability (IDH-C35 + Dasatinib; first compound 0.8 µM)	relative viability (IDH-C35 + Dasatinib; first compound 2.53 µM)	relative viability (IDH-C35 + Dasatinib; first compound 8 µM)
NCI-H2170	0.909	0.966	0.956	0.756	0.94	0.542	0.594	0.594	0.678	0.538
NCI-H2085	0.844	0.586	0.575	0.608	0.549	0.275	0.261	0.223	0.277	0.266
SW 1573	0.496	0.574	0.622	0.59	0.654	0.571	0.545	0.545	0.549	0.38
NCI-H727	0.348	0.374	0.442	0.379	0.34	0.514	0.315	0.366	0.388	0.446
NCI-H441	0.532	0.424	0.458	0.478	0.436	0.629	0.753	0.536	0.673	0.541
LOU-NH91	0.802	0.756	0.812	0.826	0.792	0.554	0.538	0.558	0.531	0.557
NCI-H3122	0.226	0.305	0.254	0.187	0.229	0.725	0.487	0.56	0.865	0.777
NCI-H460	0.158	0.149	0.186	0.136	0.206	0.379	0.512	0.49	0.479	0.495
NCI-H650	1.09	1.01	1.15	0.982	1.04	0.475	0.468	0.462		0.433
NCI-H661	0.624	0.59	0.505	0.583	0.56	0.898	0.945	0.868	0.974	0.79
NCI-H1793	0.378	0.435	0.392	0.455	0.36	0.409	0.423	0.364		0.414
NCI-H1734	0.666	0.757	0.675	0.62	0.665	0.469	0.524	0.511	0.458	0.419
LXF-289	0.705	0.702	0.669	0.641	0.689	0.276	0.25	0.252	0.221	0.214
H3255	0.602	0.693	0.671	0.617	0.681	0.406	0.415	0.306	0.453	0.331
201T	0.715	0.708	0.713	0.739	0.694	0.575	0.569	0.607	0.582	0.529
NCI-H2126	0.527	0.57	0.548	0.551	0.577	0.6	0.651	0.596	0.605	0.588
